Measured values as given in patent US11673888B2, “Bicyclic compounds as ATX inhibitors” (Hoffmann-La Roche Inc., priority 2017, dated 2023).

Molecular target: ATX (human His-tagged) (Homo sapiens (Human), UniProt Q13822)
Assay: Human ATX Enzyme Inhibition Assay (fluorescence quenching, MR121 substrate)
Assay type: biochemical
Details: 30 nM ATX, 1 μM MR121 substrate, 30° C.
Description: Autotaxin (ATX-ENPP2) cloning: cDNA was prepared from commercial human hematopoietic cells total RNA and used as template in overlapping PCR to generate a full length human ENPP2 ORF with or without a 3′-6×His tag. These full length inserts were cloned into the pcDNA3.1V5-His TOPO (Invitrogen) vector. The DNA sequences of several single clones were verified. The DNA from a correct full length clone was used to transfect Hek293 cells for verification of protein expression. The sequence of the encoded ENPP2 conforms to Swissprot entry Q13822, with or without the additional C-terminal 6×His tag. ATX Fermentation: Recombinant protein was produced by large-scale transient transfection in 20 L controlled stirred tank bioreactors (Sartorius). During cell growth and transfection, temperature, stirrer speed, pH and dissolved oxygen concentration were maintained at 37° C., 120 rpm, 7.1 and 30% DO, respectively. […] Expression was analyzed by Western Blot, enzymatic assay and/or analytical IMAC chromatography. […] Human ATX Enzyme Inhibition Assay ATX inhibition was measured by a fluorescence quenching assay using a specifically labeled substrate analogue (MR121 substrate). […]

O=C(c1cnc(OCC2CCOCC2)c(C2CC2)c1)N1CCc2nc(C(=O)N3CCc4[nH]nnc4C3)sc2C1 [Example 1.03]
IC50: 5 nM
